Test results published in ChEMBL document CHEMBL4017441, “Mitigating the inhibition of human bile salt export pump by drugs: opportunities provided by physicochemical property modulation, in silico modeling, and structural modification” (Drug Metab Dispos, 2012).
Counter-ions that a name gives are not always drawn.

Molecular target: Bile salt export pump (Homo sapiens, UniProt O95342)
Assay type: ADME

Row | SMILES | IC50 [µM]
1 | CC(=O)O[C@H]1C[C@@]2(C)[C@@H](C[C@@H](O)[C@H]3[C@@]4(C)CC[C@@H](O)[C@@H](C)[C@@H]4CC[C@@]32C)/C1=C(\CCC=C(C)C)C(=O)O [FUSIDATE SODIUM] | < 10
2 | NCC1(CC(=O)O)CCCCC1 [GABAPENTIN] | > 1000
3 | CO/N=C1\CN(c2nc3c(cc2F)c(=O)c(C(=O)O)cn3C2CC2)CC1CN (stereo not given) [GEMIFLOXACIN] | > 1000
4 | O=C(OCC(O)CO)c1ccccc1Nc1ccnc2cc(Cl)ccc12 (stereo not given) [GLAFENINE] | < 14.9
5 | Cc1ccc(S(=O)(=O)NC(=O)NN2CC3CCCC3C2)cc1 (stereo not given) [GLICLAZIDE] | 591
6 | CCC1=C(C)CN(C(=O)NCCc2ccc(S(=O)(=O)NC(=O)N[C@H]3CC[C@H](C)CC3)cc2)C1=O [GLIMEPIRIDE] | < 10
7 | COc1ccccc1O [GUAIACOL] | > 1000
8 | N=C(N)N/N=C/c1c(Cl)cccc1Cl [GUANABENZ] | 344
9 | N=C(N)NCCN1CCCCCCC1 [GUANETHIDINE] | > 1000
10 | CC1(C)O[C@@H]2C[C@H]3[C@@H]4CCC5=CC(=O)CC[C@]5(C)[C@@]4(F)[C@@H](O)C[C@]3(C)[C@]2(C(=O)CCl)O1 [HALCINONIDE] | < 10
11 | CC(=O)NCCCCCCNC(C)=O [HEXAMETHYLENEBISACETAMIDE] | > 1000
12 | Oc1ccc(C(O)CNCCCCCCNCC(O)c2ccc(O)c(O)c2)cc1O (stereo not given) [HEXOPRENALINE] | > 1000
13 | CC(CNC1CCCCC1)OC(=O)c1ccccc1 (stereo not given) [HEXYLCAINE HYDROCHLORIDE] | 506
14 | NCCc1c[nH]cn1 [HISTAMINE] | > 1000
15 | CCN(CC)CCNc1ccc(CO)c2sc3ccccc3c(=O)c12 [HYCANTHONE] | 29.8
16 | NNc1nncc2ccccc12 [HYDRALAZINE] | > 1000
17 | C[C@]12CCC(=O)C=C1CC[C@@H]1[C@@H]2[C@@H](O)C[C@@]2(C)[C@H]1CC[C@]2(O)C(=O)CO [HYDROCORTISONE] | 252
18 | NS(=O)(=O)c1cc2c(cc1C(F)(F)F)NCNS2(=O)=O [HYDROFLUMETHIAZIDE] | > 1000
19 | OCCOCCN1CCN(C(c2ccccc2)c2ccc(Cl)cc2)CC1 (stereo not given) [HYDROXYZINE] | 72.9
20 | CC(C)Cc1ccc(C(C)C(=O)O)cc1 (stereo not given) [IBUPROFEN] | > 789
21 | Cc1ccc(NC(=O)c2ccc(CN3CCN(C)CC3)cc2)cc1Nc1nccc(-c2cccnc2)n1 [IMATINIB] | < 10
22 | CCn1ccnc1CC1COc2ccccc2O1 (stereo not given) [IMILOXAN] | 61.7
23 | C[C@@H](O)[C@H]1C(=O)N2C(C(=O)O)=C(SCCN=CN)C[C@H]12 [IMIPENEM ANHYDROUS] | > 1000
24 | Nc1cc(-c2ccncc2)c[nH]c1=O [INAMRINONE] | 371

Row | SMILES | IC50 [µM]
25 | c1ccc2c(CCC3CCNCC3)c[nH]c2c1 [INDALPINE] | > 1000
26 | CC1Cc2ccccc2N1NC(=O)c1ccc(Cl)c(S(N)(=O)=O)c1 (stereo not given) [INDAPAMIDE] | 145
27 | O=C(NC1CCN(CCc2c[nH]c3ccccc23)CC1)c1ccccc1 [INDORAMIN] | 109
28 | Oc1c(I)cc(I)c2cccnc12 [IODOQUINOL] | > 1000
29 | CC(C)NNC(=O)c1ccncc1 [IPRONIAZID] | > 953
30 | O=C1c2ccccc2S(=O)(=O)N1CCCCN1CCN(c2ncccn2)CC1 [IPSAPIRONE] | 31.2
31 | CCC(NC(C)C)C(O)c1ccc(O)c(O)c1 (stereo not given) [ISOETHARINE] | > 1000
32 | CC(C)NCC(O)c1ccc(O)c(O)c1 (stereo not given) [ISOPROTERENOL] | > 986
33 | CC(COc1ccccc1)NC(C)C(O)c1ccc(O)cc1 (stereo not given) [ISOXSUPRINE] | 573
34 | CN1CCC(=C2c3ccccc3CC(=O)c3sccc32)CC1 [KETOTIFEN] | > 429
35 | CC(CCc1ccccc1)NCC(O)c1ccc(O)c(C(N)=O)c1 (stereo not given) [LABETALOL] | 649
36 | OC[C@@H](O)[C@@H](O[C@@H]1O[C@H](CO)[C@H](O)[C@H](O)[C@H]1O)[C@H](O)[C@@H](O)CO [LACTITOL] | > 1000
37 | CS(=O)(=O)CCNCc1ccc(-c2ccc3ncnc(Nc4ccc(OCc5cccc(F)c5)c(Cl)c4)c3c2)o1 [LAPATINIB] | < 10
38 | Cc1ccc2c(c1)c1c(n2CCc2ccc(C)nc2)CCN(C)C1 [LATREPIRDINE] | 136
39 | C[C@H](CN(C(=O)c1ccc(C#N)cc1)c1ccccn1)N1CCN(c2cccc3c2OCCO3)CC1 [LECOZOTAN] | < 10
40 | Cc1oncc1C(=O)Nc1ccc(C(F)(F)F)cc1 [LEFLUNOMIDE] | 110
41 | N#Cc1ccc(C(c2ccc(C#N)cc2)n2cncn2)cc1 [LETROZOLE] | 225
42 | Nc1nc2c(c(=O)[nH]1)N(C=O)C(CNc1ccc(C(=O)N[C@@H](CCC(=O)O)C(=O)O)cc1)CN2 (stereo not given in full) [LEUCOVORIN] | > 1000
43 | c1ccc([C@H]2CN3CCSC3=N2)cc1 [LEVAMISOLE] | > 1000
44 | CC1(C)Oc2ccc(C#N)cc2[C@@H](N2CCCC2=O)[C@@H]1O [LEVCROMAKALIM] | 353
45 | COc1ccc2c(c1)N(C[C@H](C)CN(C)C)c1ccccc1S2 [LEVOMEPROMAZINE] | 127
46 | CN=C(N)NC(=O)Nc1c(C)cccc1C [LIDAMIDINE] | > 1000
47 | Cc1nc(C)c(C)nc1C [LIGUSTRAZINE] | > 1000
48 | Cc1cccc(C)c1CNc1cc(C(=O)NCCO)cn2c(C)c(C)nc12 [LINAPRAZAN] | < 10

Row | SMILES | IC50 [µM]
49 | CC(=O)NC[C@H]1CN(c2ccc(N3CCOCC3)c(F)c2)C(=O)O1 [LINEZOLID] | > 1000
50 | O=C(O)CCCCC1CCSS1 (stereo not drawn) [LIPOIC ACID, ALPHA] | > 1000
51 | COc1c(OC)c(OC(C)=O)c2cc(Cl)ccc2c1OC(C)=O [LONAPALENE] | 14.4
52 | CCCCc1nc(Cl)c(CO)n1Cc1ccc(-c2ccccc2-c2nn[nH]n2)cc1 [LOSARTAN] | < 10
53 | Cc1ccc(Cl)c(Nc2ccccc2C(=O)O)c1Cl [MECLOFENAMIC ACID] | 27.2
54 | CC(=O)O[C@]1(C(C)=O)CC[C@H]2[C@@H]3C=C(C)C4=CC(=O)CC[C@]4(C)[C@H]3CC[C@@]21C [MEGESTROL ACETATE] | < 10
55 | CC12CC3CC(C)(C1)CC(N)(C3)C2 [MEMANTINE] | > 1000
56 | C[N+]1(C)CCCC(OC(=O)C(O)(c2ccccc2)c2ccccc2)C1 (stereo not given) [MEPENZOLATE BROMIDE] | > 1000
57 | Cc1ccccc1OCC(O)CO (stereo not given) [MEPHENESIN] | > 1000
58 | CCC1(c2ccccc2)NC(=O)N(C)C1=O (stereo not given) [MEPHENYTOIN] | > 1000
59 | Cc1cc2c(OCC(O)CNC(C)C)cccc2[nH]1 (stereo not given) [MEPINDOLOL] | 35.9 to 36
60 | CCCNC(C)(C)COC(=O)c1ccccc1 [MEPRYLCAINE] | > 1000
61 | C[C@H](N)[C@H](O)c1cccc(O)c1 [METARAMINOL] | > 1000
62 | CN1C[C@H](CNC(=O)OCc2ccccc2)C[C@@H]2c3cccc4c3c(cn4C)C[C@H]21 [METERGOLINE] | < 10
63 | COc1ccccc1OCC(O)COC(N)=O (stereo not given) [METHOCARBAMOL] | > 1000
64 | COc1ccc(OC)c(C(O)C(C)N)c1 (stereo not given) [METHOXAMINE] | > 1000
65 | C[C@H]1C[C@@H]2[C@H]([C@@H](O)C[C@@]3(C)[C@H]2CC[C@]3(O)C(=O)CO)[C@@]2(C)C=CC(=O)C=C12 [METHYLPREDNISOLONE] | 33
66 | CC(CN(C)C)CN1c2ccccc2Sc2ccccc21 (stereo not given) [METHYLPROMAZINE] | 73.7
67 | Cc1cc(=O)[nH]c(=S)[nH]1 [METHYLTHIOURACIL] | > 1000
68 | CC[C@@H](CO)NC(=O)[C@@H]1C=C2c3cccc4c3c(cn4C)C[C@H]2N(C)C1 [METHYSERGIDE] | 33.1
69 | CC(=O)Nc1c(I)c(C(=O)N[C@H]2C(O)O[C@H](CO)[C@@H](O)[C@@H]2O)c(I)c(N(C)C(C)=O)c1I (stereo not given in full) [METRIZAMIDE] | > 1000
70 | CC(C)(C(=O)c1cccnc1)c1cccnc1 [METYRAPONE] | 229
71 | CN1CCN2c3ccccc3Cc3ccccc3C2C1 (stereo not given) [MIANSERIN] | 46.8 to 47
72 | Clc1ccc(COC(Cn2ccnc2)c2ccc(Cl)cc2Cl)c(Cl)c1 (stereo not given) [MICONAZOLE] | < 10

Row | SMILES | IC50 [µM]
73 | CCCc1c2nc(C(=O)O)cc(NC)c2cc2c(=O)cc(C(=O)O)oc12 [MINOCROMIL] | > 1000
74 | Clc1ccc(C(c2ccccc2Cl)C(Cl)Cl)cc1 (stereo not given) [MITOTANE] | < 10
75 | COc1c(N2C[C@@H]3CCCN[C@@H]3C2)c(F)cc2c(=O)c(C(=O)O)cn(C3CC3)c12 [MOXIFLOXACIN] | > 1000
76 | CC(C)(C)NCC(O)COc1cccc2c1CC(O)C(O)C2 (stereo not given) [NADOLOL] | > 1000
77 | CCN(CC)CCOC(=O)C(Cc1cccc2ccccc12)CC1CCCO1 (stereo not given) [NAFRONYL] | < 11
78 | COc1ccccc1N1CCN(CC(O)COc2cccc3ccccc23)CC1 (stereo not given) [NAFTOPIDIL] | < 10
79 | C=CCN1CC[C@]23c4c5ccc(O)c4O[C@H]2C(=O)CC[C@@]3(O)[C@H]1C5 [NALOXONE] | 549
80 | O=C1CC[C@@]2(O)[C@H]3Cc4ccc(O)c5c4[C@@]2(CCN3CC2CC2)[C@H]1O5 [NALTREXONE] | > 1000
81 | c1ccc2c(CC3=NCCN3)cccc2c1 [NAPHAZOLINE] | > 1000
82 | COc1ccc2cc([C@H](C)C(=O)O)ccc2c1 [NAPROXEN] | > 1000
83 | CC[C@@H](Nc1c(Nc2cccc(C(=O)N(C)C)c2O)c(=O)c1=O)c1ccc(C)o1 [NAVARIXIN ANHYDROUS] | < 10
84 | CCCc1c2oc(C(=O)O)cc(=O)c2cc2c(=O)cc(C(=O)O)n(CC)c12 [NEDOCROMIL] | > 1000
85 | CCc1nn(CCCN2CCN(c3cccc(Cl)c3)CC2)c(=O)n1CCOc1ccccc1 [NEFAZODONE] | < 10
86 | O=c1ncn2nc(Sc3ccc(F)cc3F)ccc2c1-c1c(Cl)cccc1Cl [NEFLAMAPIMOD] | < 10
87 | CN(C)C(=O)Oc1cccc([N+](C)(C)C)c1 [NEOSTIGMINE] | > 1000
88 | Cc1ccnc2c1NC(=O)c1cccnc1N2C1CC1 [NEVIRAPINE] | 295
89 | COC(=O)C1=C(C)NC(C)=C(C(=O)OCCN(C)Cc2ccccc2)C1c1cccc([N+](=O)[O-])c1 (stereo not given) [NICARDIPINE] | < 10
90 | CN1CCC[C@H]1c1cccnc1 [NICOTINE] | > 1000
91 | COC(=O)C1=C(C)NC(C)=C(C(=O)OC)C1c1ccccc1[N+](=O)[O-] [NIFEDIPINE] | 18.7
92 | COC(=O)C1=C(C#N)NC(C)=C(C(=O)OC(C)C)C1c1cccc([N+](=O)[O-])c1 (stereo not given) [NILVADIPINE] | < 10
93 | NC(=O)c1cc([N+](=O)[O-])cc([N+](=O)[O-])c1 [NITROMIDE] | 185
94 | CC(CCc1ccccc1)NC(C)C(O)c1ccc(O)cc1 (stereo not given) [NYLIDRIN] | 280
95 | CC1COc2c(N3CCN(C)CC3)c(F)cc3c(=O)c(C(=O)O)cn1c23 (stereo not given) [OFLOXACIN] | > 1000
